Activity calls are given as the source filed them. The rule behind the calls is not given here.
What was measured:
[1] = target: T1, Muscarinic acetylcholine receptor M2 (Homo sapiens, UniProt P08172); assay: Agonist activity at human muscarinic M2 receptor expressed in CHO cells after 30 mins by GTPgamma35S binding assay; format: functional, cell-based
T1 sequence (P08172 whole entry): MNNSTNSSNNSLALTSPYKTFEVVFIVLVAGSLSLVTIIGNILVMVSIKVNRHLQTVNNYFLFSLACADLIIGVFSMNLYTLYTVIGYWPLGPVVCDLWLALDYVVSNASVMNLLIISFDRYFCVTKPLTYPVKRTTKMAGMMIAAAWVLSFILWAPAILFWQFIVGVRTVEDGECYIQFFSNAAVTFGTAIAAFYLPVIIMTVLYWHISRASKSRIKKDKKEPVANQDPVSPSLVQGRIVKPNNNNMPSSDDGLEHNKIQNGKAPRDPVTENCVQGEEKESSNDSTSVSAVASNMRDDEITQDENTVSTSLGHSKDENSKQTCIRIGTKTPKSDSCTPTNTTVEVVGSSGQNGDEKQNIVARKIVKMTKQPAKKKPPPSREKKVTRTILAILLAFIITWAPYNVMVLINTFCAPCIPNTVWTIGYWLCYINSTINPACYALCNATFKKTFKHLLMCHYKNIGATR

[2] = target: T2, Muscarinic acetylcholine receptor M1 (Homo sapiens, UniProt P11229); assay: Agonist activity at human muscarinic M1 receptor expressed in CHO cells after 30 mins by GTPgamma35S binding assay; format: functional, cell-based
T2 sequence (P11229 whole entry): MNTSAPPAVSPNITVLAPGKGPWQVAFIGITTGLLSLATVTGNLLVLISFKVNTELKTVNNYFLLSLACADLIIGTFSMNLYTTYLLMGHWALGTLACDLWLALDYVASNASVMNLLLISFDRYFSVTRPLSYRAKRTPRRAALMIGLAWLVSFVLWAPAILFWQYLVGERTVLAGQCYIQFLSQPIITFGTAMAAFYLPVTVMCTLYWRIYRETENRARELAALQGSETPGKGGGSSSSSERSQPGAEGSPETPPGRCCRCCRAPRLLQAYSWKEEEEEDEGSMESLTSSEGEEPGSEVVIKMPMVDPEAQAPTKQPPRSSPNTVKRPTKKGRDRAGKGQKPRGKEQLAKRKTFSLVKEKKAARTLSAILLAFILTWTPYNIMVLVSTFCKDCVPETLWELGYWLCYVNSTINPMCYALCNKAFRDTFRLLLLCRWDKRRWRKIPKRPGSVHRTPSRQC

[3] = target: T3, Muscarinic acetylcholine receptor M2 (Homo sapiens) (UniProt P08172); assay: Agonist activity at human muscarinic M2 receptor expressed in CHO cells after 30 mins by GTPgamma35S binding assay relative to oxotremorine-M; format: functional, cell-based
T3 sequence (whole entry): T1 sequence (P08172 whole entry)

[4] = target: T4, Muscarinic acetylcholine receptor M1 (Homo sapiens) (UniProt P11229); assay: Agonist activity at human muscarinic M1 receptor expressed in CHO cells after 30 mins by GTPgamma35S binding assay relative to oxotremorine-M; format: functional, cell-based
T4 sequence (whole entry): T2 sequence (P11229 whole entry)

[5] = system: Rattus norvegicus; assay: AUC (0 to 8 hrs) in rat at 10 mg/kg, po; format: ADME, organism-based; set-up: time < 8 hr, dose 10 mg/kg, route oral; conditions: in vivo
[6] = target: T5, Muscarinic acetylcholine receptor M4 (Homo sapiens, UniProt P08173); assay: Agonist activity at human muscarinic M4 receptor expressed in CHO cells after 30 mins by GTPgamma35S binding assay; format: functional, cell-based
T5 sequence (P08173 whole entry): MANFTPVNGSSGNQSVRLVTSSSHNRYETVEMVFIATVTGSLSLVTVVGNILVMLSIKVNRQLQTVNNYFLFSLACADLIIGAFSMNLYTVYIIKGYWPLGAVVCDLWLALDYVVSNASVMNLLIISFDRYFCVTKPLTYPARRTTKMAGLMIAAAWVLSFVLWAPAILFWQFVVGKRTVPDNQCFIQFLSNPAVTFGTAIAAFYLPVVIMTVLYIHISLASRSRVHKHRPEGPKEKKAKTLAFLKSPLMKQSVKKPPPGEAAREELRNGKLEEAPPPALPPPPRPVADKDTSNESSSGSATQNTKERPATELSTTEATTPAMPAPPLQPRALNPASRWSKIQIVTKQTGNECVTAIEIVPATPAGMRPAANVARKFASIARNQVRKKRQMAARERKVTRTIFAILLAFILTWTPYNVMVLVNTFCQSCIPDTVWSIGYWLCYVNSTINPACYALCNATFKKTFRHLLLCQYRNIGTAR

[7] = target: Muscarinic acetylcholine receptor M3 (Homo sapiens, UniProt P20309); assay: Agonist activity at human muscarinic M3 receptor expressed in CHO cells after 30 mins by GTPgamma35S binding assay; format: functional, cell-based; conditions: cho
[8] = Dissociation constant, pKa of the compound; format: physicochemical
[9] = target: T6, Muscarinic acetylcholine receptor M5 (Homo sapiens, UniProt P08912); assay: Agonist activity at human muscarinic M5 receptor expressed in CHO cells after 30 mins by GTPgamma35S binding assay; format: functional, cell-based; conditions: cho
T6 sequence (P08912 whole entry): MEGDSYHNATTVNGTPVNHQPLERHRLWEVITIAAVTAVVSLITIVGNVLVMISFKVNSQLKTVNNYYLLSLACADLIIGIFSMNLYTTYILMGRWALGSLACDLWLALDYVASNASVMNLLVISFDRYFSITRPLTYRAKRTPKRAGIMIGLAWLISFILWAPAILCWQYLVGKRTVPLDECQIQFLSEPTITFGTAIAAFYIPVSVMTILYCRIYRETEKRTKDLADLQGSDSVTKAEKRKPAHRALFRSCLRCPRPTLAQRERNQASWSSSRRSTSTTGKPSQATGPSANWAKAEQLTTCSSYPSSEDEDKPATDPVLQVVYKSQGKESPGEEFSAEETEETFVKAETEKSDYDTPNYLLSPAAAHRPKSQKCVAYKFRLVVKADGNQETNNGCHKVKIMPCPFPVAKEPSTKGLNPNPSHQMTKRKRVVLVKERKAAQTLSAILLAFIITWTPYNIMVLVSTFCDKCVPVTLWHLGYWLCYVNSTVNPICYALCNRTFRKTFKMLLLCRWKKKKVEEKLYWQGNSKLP

[10] = Drug uptake in rat whole brain at 10 mg/kg, po measured at 3 hrs; format: ADME, organism-based; conditions: read-out: Drug uptake
[11] = target: T7, Muscarinic acetylcholine receptor M4 (Homo sapiens) (UniProt P08173); assay: Agonist activity at human muscarinic M4 receptor expressed in CHO cells after 30 mins by GTPgamma35S binding assay relative to oxotremorine-M; format: functional, cell-based
T7 sequence (whole entry): T5 sequence (P08173 whole entry)

[12] = Drug degradation in rat plasma assessed as formamidine hydrolysis after 4 hrs; format: ADME, cell-free; conditions: read-out: Drug degradation
[13] = target: T3, Muscarinic acetylcholine receptor M2 (Homo sapiens); assay: Agonist activity at human muscarinic M2 receptor expressed in CHO cells at 280 nM after 30 mins by GTPgamma35S binding assay relative to control; format: functional, cell-based
[14] = system: Rattus norvegicus; assay: Cognitive enhancement activity in po dosed rat by 8-arm radial maze test; format: functional; conditions: read-out: MED
[15] = Partition coefficient, log D of the compound; format: physicochemical; conditions: octanol/water
[16] = Oral bioavailability in rat; format: ADME, organism-based; conditions: in vivo
[17] = system: Rattus norvegicus; assay: AUC (0 to 6 hrs) in rat at 10 mg/kg, po; format: ADME, organism-based; set-up: time < 6 hr, dose 10 mg/kg, route oral; conditions: in vivo
[18] = Oral bioavailability in monkey; format: ADME, organism-based, Macaca mulatta; conditions: rhesus monkey, in vivo
[19] = system: Rattus norvegicus; assay: Cognitive enhancement activity in rat at 30 mg/kg, po by spatial learning test; format: functional, organism-based
[20] = target: T7, Muscarinic acetylcholine receptor M4 (Homo sapiens); assay: Agonist activity at human muscarinic M4 receptor expressed in CHO cells after 30 mins by GTPgamma35S binding assay relative to acetylcholine; format: functional, cell-based
[21] = target: T3, Muscarinic acetylcholine receptor M2 (Homo sapiens); assay: Agonist activity at human muscarinic M2 receptor expressed in CHO cells after 30 mins by GTPgamma35S binding assay relative to acetylcholine; format: functional, cell-based
[22] = system: Plasma; assay: Metabolic stability in rat plasma; format: ADME, cell-free

Sequence of Muscarinic acetylcholine receptor M3 (P20309 whole entry): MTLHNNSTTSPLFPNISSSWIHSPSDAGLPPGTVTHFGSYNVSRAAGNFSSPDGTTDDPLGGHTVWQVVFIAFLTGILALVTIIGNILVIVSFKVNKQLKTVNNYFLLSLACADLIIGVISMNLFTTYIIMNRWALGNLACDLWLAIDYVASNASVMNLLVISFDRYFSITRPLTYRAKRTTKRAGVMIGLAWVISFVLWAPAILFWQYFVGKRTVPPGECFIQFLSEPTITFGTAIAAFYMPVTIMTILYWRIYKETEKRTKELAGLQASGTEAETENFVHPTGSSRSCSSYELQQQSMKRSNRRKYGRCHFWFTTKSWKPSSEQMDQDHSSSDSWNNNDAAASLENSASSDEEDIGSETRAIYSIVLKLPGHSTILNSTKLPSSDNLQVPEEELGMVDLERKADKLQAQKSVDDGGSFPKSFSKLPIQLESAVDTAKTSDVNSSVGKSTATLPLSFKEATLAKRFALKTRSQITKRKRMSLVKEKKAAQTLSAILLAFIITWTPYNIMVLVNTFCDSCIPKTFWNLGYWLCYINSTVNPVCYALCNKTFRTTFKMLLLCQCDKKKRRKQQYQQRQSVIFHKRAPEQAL

Structure (SMILES) | EC50 [1] | EC50 [2] | Efficacy [3] | Efficacy [4] | AUC [5] | EC50 [6] | EC50 [7] | pKa [8] | EC50 [9] | concentration at 3 h [10] | Efficacy [11] | logD [15] | further results
C/C(=N\c1ccc2c(c1)[C@@H](NC(=O)c1ccc(Br)cc1)[C@H](O)C2)Nc1ccc(F)cc1 | 0.749 µM | 0.051 µM | 25.2% | 79.4% | 1369 ng·h/g | 1.11 µM | Not Active | 8.2 | Not Active | 147 ng/g | 23.1% |  | 
O=C(N[C@@H]1c2cc(/N=C/N3CCCC3)ccc2C[C@H]1O)c1ccc(Br)cc1 |  |  |  |  |  |  |  |  |  |  |  |  | metabolised at 4 h [12]: 50%; Emax [13]: 80%
C/C(=N\c1ccc2c(c1)[C@@H](NC(=O)c1ccc(Br)cc1)[C@H](O)C2)N1CCCCC1 |  |  |  |  |  |  |  |  |  |  |  |  | metabolised at 4 h [12]: 5%
C/C(=N\c1ccc2c(c1)[C@@H](NC(=O)c1ccc(Br)cc1)[C@H](O)C2)N(C)c1ccc(F)cc1 |  | 0.118 µM | < 20% | 31.5% | 4681 ng·h/g |  | Not Active |  | Not Active | 891 ng/g | < 20% |  | 
C/C(=N\c1ccc2c(c1)[C@@H](NC(=O)c1ccc(-c3ccccc3)cc1)[C@H](O)C2)N(C)Cc1ccc(F)cc1 | 0.693 µM | 0.0228 µM | 34.6% | 110% |  | 1.06 µM | Not Active | 8.3 | Not Active | 141 ng/g | 29.7% | 2.3 | minimal effective dose [14]: 1 mg/kg; bioavailability [16]: 32%; AUC [17]: 533 ng·h/g; bioavailability [18]: 46%
CN1CCCC/C1=N\c1ccc2c(c1)[C@@H](NC(=O)c1ccc(Br)cc1)[C@H](O)C2 | 0.024 µM | 0.08 µM |  |  | 506 ng·h/g | 0.113 µM |  | 9.9 |  | < 40 ng/g |  | 1.04 | Activity [19]: Active; Efficacy [20]: 34%; bioavailability [16]: 68%; Efficacy [21]: 28%; Stability [22]: Stable
C/C(=N\c1ccc2c(c1)[C@@H](NC(=O)c1ccc(Br)cc1)[C@H](O)C2)NCc1ccc(F)cc1 | 0.0718 µM | 0.0209 µM | 31.8% | 89.9% | 634 ng·h/g | 0.115 µM | Not Active | 8.49 | Not Active | 64 ng/g | 33.5% | 2.01 | 
